{"source": "patent US20250228978A1", "about": "“ENGINEERING SUICIDE GENE APPROACHES TO IMPROVE CHEMOTHERAPEUTIC RESPONSE IN CANCER” (University of Virginia Patent Foundation, priority 0001, published 2025)", "key": {"[1]": {"test_system": "CK2α and CK2α′", "assay": "CK2 catalytic subunit expression after TMZ or carboplatin (immunofluorescence)", "type": "cell-based", "details": "U87 MG cells, drug treated", "experimental": "FIGS. 36A and 36B. Effect of TMZ or carboplatin on CK2 expression. U87 MG cells were subjected to immunofluorescence microscopy using antibodies against the two CK2 catalytic (FIG. 36A: CK2α, FIG. 36B: CK2α′) subunits. Image is representative of n=3 replicates and data are plotted as mean±sd. A Student's t test was applied to determine the significance of observed differences; *, **, and *** indicate p=0.05, 0.01, or 0.001, respectively.\n(§1) To determine if a CK2-regulated SGT would cooperate with chemotherapies used to treat glioblastoma, we measured the response of AKT-gen2 transductants to a combination of GCV with temozolomide (TMZ) or carboplatin. We hypothesized that a synergistic effect could occurs because CK2 contributes to DNA damage response and responds to stress signals; it seemed sensible that this could drive higher CK2 activity26,27,29."}, "[2]": {"test_system": "U87 MG cells expressing AKT-gen2", "assay": "Effect of chemotherapy on AKT-gen2 SGT (FLAG) expression", "type": "cell-based", "details": "48 hr; for FLAG expression of AKT-gen2 SGT vs control: carboplatin 200 μM or TMZ 300 μM, immunoblot", "experimental": "U87 MG cells expressing AKT-gen2 were treated with carboplatin (200 μM), TMZ (300 μM), or DMSO, and lysed after 48 hours. Densitometry was used to quantify the GAPDH-normalized FLAG signal.\nCells were also treated with carboplatin (125 μM) or DMSO for 48 hours and immunofluorescence microscopy was performed using antibodies against the proteins as shown in FIG. 29B. The expression of each variant was quantified as the mean FLAG expression on a per-cell basis.\nas §1\n[…]. We further examined the extent of carboplatin-mediated effects on CK2 expression increase through immunofluorescence microscopy (FIG. 29B). AKT-gen2 transductants were plated in 96-well glass-bottomed plates for imaging and treated with a reduced carboplatin concentration (125 μM) to promote the retention of adherent cells.\nBecause we observed increased CK2α and CK2α′ in carboplatin-treated cells (FIGS. 27A, 36A, and 36B), we next examined if the carboplatin-dependent increase in AKT-gen2 expression relies on CK2 expression. In U87 MG AKT-gen2 transductants expressing CK2 (α/α′ catalytic subunits) or control shRNA, CK2α knockdown abrogated the carboplatin-mediated increase in SGT expression (FIG. 29C)."}, "[3]": {"test_system": "U87 MG AKTgen2 transductants", "assay": "Cell death by flow cytometry (TO-PRO-3), carboplatin pre-treatment followed by GCV", "details": "carboplatin 200 μM two days and/or GCV 50 μM three days", "method": "Flow cytometry for cell death quantification. For cell death experiments, cells were plated in 6-well plates, and cell treatments were performed as described in figure legends. At the conclusion of experiments, floating and adherent cells were collected, resuspended in PBS containing TO-PRO-3 (Life Technologies, 1:10,000), and stored on ice until analysis. Within an hour of collection, cells were analyzed for TO-PRO-3 permeability with a FACSCalibur cytometer (BD Biosciences). Data collected from flow cytometry experiments was analyzed in R using the FlowCore, ggCyto, and OpenCyto packages.\nCells expressing AKT-gen2 were also pre-treated with DMSO or carboplatin (200 μM) for two days, followed by treatment with DMSO or GCV (50 μM) administration for three days. Cell death was then measured by flow cytometry through TOPRO staining."}, "[4]": {"test_system": "G816 cells (glioma-initiating cell line)", "assay": "p38-regulated HSVtk constructs: FLAG abundance", "type": "cell-based, human", "details": "for FLAG expression of FLAG-NLS-HSVtk-MEF2A: two days, SB 203580 10 μM, trametinib 50 nM", "experimental": "Referring to FIG. 18B, four designs tested included peptide sequences from the MAPK targets CHOP, MEF2A, p21, and FRA1. […] Sequences shown in blue were taken from proteins primarily phosphorylated by p38, while domains in gray were taken from the original FRA 1-PEST PEST design. The ERK recognition sequence was removed from these designs to improve specificity toward p38. G816 cells (glioma-initiating cell line) expressing each of the four HSVtk constructs were grown in 21% oxygen or 1% oxygen (hypoxia), with or without SB 203580 (p38 inhibitor, 10 μM for two days. Hypoxic induction of p38 phosphorylation promoted protein stabilization, which was abrogated with the addition of a p38 inhibitor to varying degrees for each construct.\nReferring to FIG. 22A, G816-FLAG-NLS-HSVtk-MEF2A cells were treated with DMSO (vehicle), GCV (50 μM), or TMZ (500 μM) for up to 48 hours.\nReferring to FIG. 22C, G816-FLAG-NLS-HSVtk-MEF2A cells were treated with DMSO (vehicle), SB 203580 (p38 inhibitor (p38i), 10 μM), or trametinib (MEK inhibitor (MEKi), 50 nM), in addition to TNFα, GCV, or TMZ for two days."}, "[5]": {"test_system": "cells expressing yCD-FIRE", "assay": "yCD-FIRE expression and 5-FC cell killing", "type": "cell-based"}}, "data": [{"molecule": "N.N.O=C([O-])C1(C(=O)[O-])CCC1.[Pt+2]", "note": "[Carboplatin, carboplatin]", "values": [{"measurement": "CK2α and CK2α′ expression", "setting": "[1]", "result": "stronger increase"}, {"measurement": "carboplatin-mediated increase in SGT expression", "setting": "[2]; CK2α knockdown, carboplatin 200 μM", "result": "abrogated"}, {"measurement": "FLAG expression of AKT-gen2 SGT", "setting": "[2]; carboplatin 125 μM, immunofluorescence", "result": "significant enhancement in FLAG expression"}, {"measurement": "FLAG expression of AKT-gen2 SGT vs control", "setting": "[2]", "result": "significant increase in FLAG expression"}, {"measurement": "carboplatin-mediated change in SGT accumulation", "setting": "[2]; cells expressing CK2α′ shRNA, carboplatin 200 μM", "result": "small but insignificant increase"}, {"measurement": "carboplatin-mediated change in AKT-gen2 expression", "setting": "[2]; cells expressing control shRNA, carboplatin 200 μM", "result": "significant increase"}, {"measurement": "reduction in cell viability", "setting": "[3]", "result": "~15", "unit": "%"}]}, {"molecule": "Nc1nc(=O)c2ncn(COC(CO)CO)c2[nH]1", "note": "[GCV, ganciclovir]", "values": [{"measurement": "FLAG abundance of FLAG-NLS-HSVtk-MEF2A relative to vehicle", "setting": "[4]; GCV 50 μM or TMZ 500 μM, 48 hours", "result": "increased FLAG abundance"}, {"measurement": "FLAG expression of FLAG-NLS-HSVtk-MEF2A", "setting": "[4]", "result": "increased"}]}, {"molecule": "C[S+]([O-])c1ccc(-c2nc(-c3ccncc3)c(-c3ccc(F)cc3)[nH]2)cc1", "note": "(stereo not drawn) [SB 203580]", "values": [{"measurement": "FLAG expression of FLAG-NLS-HSVtk-MEF2A", "setting": "[4]", "result": "attenuated in some cases"}]}, {"molecule": "Cn1nnc2c(C(N)=O)ncn2c1=O", "note": "[TMZ, temozolomide]", "values": [{"measurement": "FLAG expression of AKT-gen2 SGT vs control", "setting": "[2]", "result": "no effect"}]}, {"molecule": "Nc1nc(=O)[nH]cc1F", "note": "[Variant 5-FC, 5-fluorocytosine]", "values": [{"measurement": "cell viability in response to 5-FC plus growth factors", "setting": "[5]; cells expressing yCD-FIRE", "result": "decreases"}, {"measurement": "5-FC IC50", "setting": "[5]; cells treated with growth factors vs not treated", "result": "lower"}]}, {"molecule": "CC(=O)Nc1cccc(-n2c(=O)n(C3CC3)c(=O)c3c(Nc4ccc(I)cc4F)n(C)c(=O)c(C)c32)c1", "note": "[trametinib, N-[3-[3-cyclopropyl-5-(2-fluoro-4-iodoanilino)-6,8-dimethyl-2,4,7-trioxopyrido[4,3-d]pyrimidin-1-yl]phenyl]acetamide]", "values": [{"measurement": "FLAG expression of FLAG-NLS-HSVtk-MEF2A", "setting": "[4]", "result": "promoted PEST stabilization"}]}, {"molecule": "TNFα", "values": [{"measurement": "FLAG expression of FLAG-NLS-HSVtk-MEF2A", "setting": "[4]", "result": "increased"}]}]}
